In DBAASP:
≈ marks a conversion by molar mass, not a printed value. Where “and” joins values, the source holds several entries; their conditions need not be identical. Equal entries are not always repeated.

Tests used:
Experiment in all cases: ≥ marks a high value that may be exact or a test limit, other limits are often not marked, values filed in µg/mL are converted to µM
[1] = test system: Neisseria gonorrhoeae FA-19
Escherichia coli = test system: Escherichia coli
[2] = test system: Salmonella enterica subsp. enterica serovar Typhimurium ATCC 14028
Candida albicans = test system: Candida albicans
Escherichia coli UB1005 = test system: Escherichia coli UB1005
[3] = test system: Bacillus subtilis ATCC 11060
Escherichia coli K88 = test system: Escherichia coli K88
Escherichia coli 078 = test system: Escherichia coli 078
[4] = test system: Escherichia coli CMCC 44102
[5] = test system: Pseudomonas aeruginosa ATCC 10419
[6] = test system: Escherichia coli CVCC 1515
[7] = test system: Enterococcus faecalis ATCC 29212
[8] = test system: Pseudomonas aeruginosa ATCC 21630
Listeria monocytogenes = test system: Listeria monocytogenes
Escherichia coli ER2566 = test system: Escherichia coli ER2566
[9] = test system: Staphylococcus aureus ATCC 29213
[10] = test system: Staphylococcus aureus ATCC 25923
[11] = test system: Salmonella enterica subsp. enterica serovar Typhimurium C77-31
[12] = test system: Pseudomonas aeruginosa ATCC 21625
[13] = test system: Staphylococcus epidermidis ATCC 12228
[14] = test system: Neisseria gonorrhoeae F-62
[15] = test system: Pseudomonas aeruginosa ATCC 27853
[16] = test system: Salmonella enterica subsp. enterica serovar Pullorum C79-13
[17] = test system: Xanthomonas campestris pv. Vesicatoria 2133-2
[18] = test system: Erwinia amylovora PMV 6076
[19] = test system: Pseudomonas syringae pv. syringae EPS 94
[20] = test system: Pseudomonas syringae pv. actinidiae Psa3700.1.1
[21] = test system: Xanthomonas arboricola pv. pruni CFBP 5563
[22] = test system: Xanthomonas fragariae Xf349-9A
[23] = test system: Enterococcus faecalis ATCC 12953
[24] = test system: Escherichia coli ATCC 8739
[25] = test system: Streptococcus pyogenes ATCC 19615
[26] = test system: Proteus mirabilis ATCC 25933
[27] = test system: Pseudomonas aeruginosa ATCC 15442
[28] = test system: Klebsiella pneumoniae ATCC 13885
[29] = test system: Bacillus subtilis ATCC 6633
[30] = test system: Staphylococcus aureus 08A865
Candida albicans SC5314 = test system: Candida albicans SC5314
[31] = test system: Candida albicans 08022710
Pseudomonas aeruginosa = test system: Pseudomonas aeruginosa
[32] = test system: Staphylococcus aureus ATCC 2592
[33] = test system: Pseudomonas aeruginosa 08031014
[34] = test system: Staphylococcus aureus 08A875
[35] = test system: Candida albicans ATCC 2002
[36] = test system: Candida albicans 08022821
[37] = test system: Staphylococcus aureus KCTC 1621
[38] = test system: Escherichia coli KCTC 1682
Proteus vulgaris = test system: Proteus vulgaris
[39] = test system: Bacillus megaterium KCTC 1096
[40] = test system: Pseudomonas aeruginosa KCTC 1637
[41] = test system: Bacillus subtilis KCTC 1918

## CC(C)C[C@H](NC(=O)CNC(=O)CNC(=O)CNC(=O)[C@@H](N)CCCNC(=N)N)C(=O)N[C@H]1CSSC[C@@H](C(=O)N[C@H](C(=O)NCC(=O)N[C@@H](CCCNC(=N)N)C(N)=O)C(C)C)NC(=O)[C@H](C(C)C)NC(=O)[C@@H]2CSSC[C@H](NC(=O)[C@H](Cc3ccc(O)cc3)NC1=O)C(=O)N[C@@H](CCCNC(=N)N)C(=O)N[C@@H](CCCNC(=N)N)C(=O)N[C@@H](CCCNC(=N)N)C(=O)N[C@@H](Cc1ccccc1)C(=O)N2 [RGGGLCYCRRRFCVCVGR]
[1]
  MIC: 0.873 µM (≈ 1.8 µg/mL)
Escherichia coli
  MIC: 1.12 µM (≈ 2.29 µg/mL)
[2]
  MIC: 1.99 µM (≈ 4.09 µg/mL)
Candida albicans
  MIC: 4.66 µM (≈ 9.58 µg/mL)
Escherichia coli UB1005
  MIC: 1.99 µM (≈ 4.09 µg/mL)
[3]
  MIC: 16.1 µM (≈ 33.1 µg/mL)
Escherichia coli K88
  MIC: 4.03 µM (≈ 8.28 µg/mL)
Escherichia coli 078
  MIC: 16.1 µM (≈ 33.1 µg/mL)
[4]
  MIC: 1.02 µM (≈ 2.09 µg/mL)
[5]
  MIC: 4.03 µM (≈ 8.28 µg/mL)
[6]
  MIC: 1.99 µM (≈ 4.09 µg/mL)
[7]
  MIC: 32.2 µM (≈ 66.2 µg/mL)
[8]
  MIC: 8.05 µM (≈ 16.6 µg/mL)
Listeria monocytogenes
  MIC: 1.36 µM (≈ 2.79 µg/mL)
Escherichia coli ER2566
  MIC: 0.485 µM (≈ 0.998 µg/mL)
[9]
  MIC: 4.03 µM (≈ 8.28 µg/mL)
[10]
  MIC: 8.05 µM (≈ 16.6 µg/mL)
[11]
  MIC: 4.03 µM (≈ 8.28 µg/mL)
[12]
  MIC: 8.05 µM (≈ 16.6 µg/mL)
[13]
  MIC: 32.2 µM (≈ 66.2 µg/mL)
[14]
  MIC: 0.679 µM (≈ 1.4 µg/mL)
[15]
  MIC: 4.03 µM (≈ 8.28 µg/mL)
[16]
  MIC: 1.99 µM (≈ 4.09 µg/mL)

## CC[C@H](C)[C@H](NC(=O)[C@H](CCCCN)NC(=O)[C@H](CCCCN)NC(=O)[C@H](CC(C)C)NC(=O)[C@H](CC(=O)O)NC(=O)[C@@H](NC(=O)[C@@H](N)Cc1ccccc1)C(C)C)C(=O)N[C@@H](C)C(=O)N[C@@H](CC(N)=O)C(=O)N[C@H](C(=O)N[C@H](C(=O)N[C@@H](CC(N)=O)C(=O)N[C@@H](CO)C(=O)N[C@H](C(=O)N[C@@H](Cc1ccccc1)C(=O)NCC(=O)N[C@@H](CCCCN)C(N)=O)[C@@H](C)CC)[C@@H](C)CC)[C@@H](C)CC [FVDLKKIANIINSIFGK]
[17]
  MIC: 4.38 µM (≈ 8.41 µg/mL)
[18]
  MIC: ≥ 35.4 µM
[19]
  MIC: ≥ 50 µM
[20]
  MIC: ≥ 50 µM
[21]
  MIC: 2.84 µM (≈ 5.45 µg/mL)
[22]
  MIC: ≥ 50 µM

## CC[C@H](C)[C@H](N)C(=O)N[C@@H](Cc1ccc(O)cc1)C(=O)N[C@@H](Cc1ccc(O)cc1)C(=O)N1CCC[C@H]1C(=O)N1CCC[C@H]1C(=O)N[C@@H](CC(N)=O)C(=O)N[C@@H](Cc1cnc[nH]1)C(=O)N[C@@H](CC(N)=O)C(=O)N[C@@H](Cc1ccccc1)C(=O)N1CCC[C@H]1C(N)=O [IYYPPNHNFP]
[23]
  MIC: ≥ 101 µM
[24]
  MIC: ≥ 203 µM
[2]
  MIC: 203 µM (≈ 256 µg/mL)
[25]
  MIC: ≥ 101 µM
[26]
  MIC: ≥ 101 µM
[27]
  MIC: ≥ 203 µM
[9]
  MIC: 203 µM (≈ 256 µg/mL)
[28]
  MIC: ≥ 101 µM
[29]
  MIC: ≥ 203 µM

## CC[C@H](C)[C@H](NC(=O)[C@H](Cc1cnc[nH]1)NC(=O)[C@H](CO)NC(=O)[C@@H](NC(=O)[C@@H](NC(=O)[C@@H](NC(=O)[C@@H](NC(=O)[C@H](CCCNC(=N)N)NC(=O)[C@H](CC(C)C)NC(=O)[C@H](CCCCN)NC(=O)[C@H](CCC(=O)O)NC(=O)[C@H](CCCCN)NC(=O)[C@H](CC(C)C)NC(=O)[C@H](CCCCN)NC(=O)[C@@H]1CSSC[C@H](NC(=O)[C@H](CCCCN)NC(=O)[C@@H](N)CCCNC(=N)N)C(=O)N[C@@H](CC(N)=O)C(=O)N[C@@H](Cc2ccccc2)C(=O)N[C@@H](CC(C)C)C(=O)N1)[C@@H](C)O)C(C)C)[C@@H](C)CC)[C@@H](C)O)C(=O)N[C@@H](CC(=O)O)C(=O)N[C@@H](CCCCN)C(=O)N[C@H](C(=O)N[C@@H](CC(C)C)C(=O)N[C@@H](CCCNC(=N)N)C(=O)N1CCC[C@H]1C(=O)N[C@@H](CCC(N)=O)C(=O)NCC(=O)O)C(C)C [RKCNFLCKLKEKLRTVITSHIDKVLRPQG]
Escherichia coli
  MIC: 1.94 µM (≈ 6.63 µg/mL)
[30]
  MIC: 2.74 µM (≈ 9.37 µg/mL)
Candida albicans SC5314
  MIC: ≥ 64 µM
Candida albicans
  MIC: 1.37 µM (≈ 4.69 µg/mL)
[31]
  MIC: 5.47 µM (≈ 18.7 µg/mL)
Pseudomonas aeruginosa
  MIC: 2.74 µM (≈ 9.37 µg/mL)
[32]
  MIC: 2.74 µM and 1.37 µM
[33]
  MIC: 10.9 µM (≈ 37.5 µg/mL)
[34]
  MIC: 5.47 µM (≈ 18.7 µg/mL)
[9]
  MIC: > 64 µM
[35]
  MIC: 1.37 µM and 0.686 µM
[29]
  MIC: 29.2 µM and 21.9 µM
[15]
  MIC: 5.47 µM and > 2.74 µM
[36]
  MIC: 2.74 µM (≈ 9.37 µg/mL)

## CC[C@H](C)[C@H](NC(=O)[C@H](CCCCN)NC(=O)[C@H](CCCCN)NC(=O)[C@H](Cc1ccccc1)NC(=O)[C@H](CC(C)C)NC(=O)[C@H](CCCCN)NC(=O)[C@H](Cc1c[nH]c2ccccc12)NC(=O)[C@@H](N)CCCCN)C(=O)N1CCC[C@H]1C(=O)N[C@@H](CC(C)C)C(=O)N[C@@H](Cc1cnc[nH]1)C(=O)N[C@@H](CC(C)C)C(=O)N[C@@H](C)C(=O)N[C@@H](CCCCN)C(=O)N[C@@H](CCCCN)C(=O)N[C@@H](Cc1ccccc1)C(N)=O [KWKLFKKIPLHLAKKF]
[37]
  MIC: 3.12 µM (≈ 6.33 µg/mL)
[38]
  MIC: 8.84 µM (≈ 17.9 µg/mL)
Proteus vulgaris
  MIC: 1.56 µM (≈ 3.16 µg/mL)
[39]
  MIC: 3.12 µM (≈ 6.33 µg/mL)
[40]
  MIC: 6.25 µM (≈ 12.7 µg/mL)
[41]
  MIC: 1.1 µM (≈ 2.23 µg/mL)
